Experimental data taken from US20250099448A1, “HETEROCYCLIC COMPOUNDS” (Hoffmann-La Roche Inc., priority 2022, published 2025).
pIC50: −log10 of the molar value.

Biological target: T1, MAGL protein (Homo sapiens, UniProt Q99685)
T1 sequence (Q99685 1-303): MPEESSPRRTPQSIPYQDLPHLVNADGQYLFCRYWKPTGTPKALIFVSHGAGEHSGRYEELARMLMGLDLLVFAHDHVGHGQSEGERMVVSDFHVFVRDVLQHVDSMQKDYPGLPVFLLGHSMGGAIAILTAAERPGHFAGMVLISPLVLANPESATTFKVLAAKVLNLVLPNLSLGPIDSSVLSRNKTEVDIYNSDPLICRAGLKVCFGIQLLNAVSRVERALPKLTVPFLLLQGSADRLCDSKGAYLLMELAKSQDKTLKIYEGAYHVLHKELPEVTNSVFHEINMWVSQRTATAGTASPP
Assay: 2-AG assay: MAGL inhibitory activity by hydrolysis of 2-arachidonoylglycerol to arachidonic acid, followed by mass spectrometry
Assay type: biochemical
Conditions: 8 μM 2-arachidonoylglycerol, 15 min preincubation, 30 min reaction at RT, RapidFire MS readout
Method in brief: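 Activity was measured by RapidFire SPE–triple-quad MS as the ratio of arachidonic acid to d8-arachidonic acid after 2-AG hydrolysis (8 μM substrate, 30 min, RT, acetonitrile quench). Compounds, tested from 12.5 μM down to […], were first preincubated 15 min with MAGL in TRIS/EDTA/Tween-20 buffer containing 2.5% DMSO.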

In order of rising pIC50:
1. CS(=O)(=O)c1cc(OC(F)(F)F)ccc1OCC1CCN(C(=O)N2CC3(CC(c4nc(C5(O)CC5)n[nH]4)C3)C2)CC1 [Example 923]  6.14
2. N=S(=O)(c1cccc(CC2CC3(C2)CN(C(=O)N2CC4(CC(c5ncn[nH]5)C4)C2)C3)c1)C(F)(F)F (stereo not shown) [compound 734]  6.25
3. CC(C)(C)Cc1nnc(C23CC(C4CN(C(=O)N5CC6(CC(c7nc(C8COC8)n[nH]7)C6)C5)C4)(C2)C3)s1 [compound 800]  6.26
4. O=C(N1CC2(CCN(S(=O)(=O)C34CC(C(F)(F)F)(C3)C4)CC2)C1)N1CC2(CC(c3nnc(C4(O)CC4)[nH]3)C2)C1 [compound 238]  6.45
5. O=C(N1CC2(CC(c3nc(C4CC4)n[nH]3)C2)C1)N1CC2(CN(Cc3cnn(C(F)F)c3)C2)C1 [compound 628]  6.83
6. CS(=O)(=O)c1ccc(COC2CCN(C(=O)N3CC4(CC(c5n[nH]c(C6CC6)n5)C4)C3)CC2)c(Cl)c1 [Example 925, [4-(2-chloro-4-mesyl-benzyl)oxypiperidino]-[6-(5-cyclopropyl-1H-1,2,4-triazol-3-yl)-2-azaspiro[3.3]heptan-2-yl]methanone]  7.10
7. O=C(N1CC2(CC(Cc3nc(C(F)(F)F)cs3)C2)C1)N1CC2(CC(c3nc(C4CC(F)(F)C4)n[nH]3)C2)C1 [compound 489]  7.12
8. O=C(N1CC2(CC(c3nc(C4CC4)n[nH]3)C2)C1)N1CC2(CN(Cc3ncc(C(F)(F)F)[nH]3)C2)C1 [compound 641]  7.17
9. CC1(NS(=O)(=O)N2CC3(CN(C(=O)N4CC5(CC(c6nnc(C7CC7)[nH]6)C5)C4)C3)C2)CC1 [compound 213]  7.35
10. CS(=O)(=O)c1cc(C(F)(F)F)ccc1COC1CCN(C(=O)N2CC3(CC(c4nc(C5CC5)n[nH]4)C3)C2)CC1 [Example 907, [6-(3-cyclopropyl-1H-1,2,4-triazol-5-yl)-2-azaspiro[3.3]heptan-2-yl]-[4-[2-mesyl-4-(trifluoromethyl)benzyl]oxypiperidino]methanone]  7.37
11. COc1cc(Cl)ccc1CN(C)C1CN(C(=O)N2CC3(CC(c4nnc(C5CC5)[nH]4)C3)C2)C1 [Example 891, [3-[(4-chloro-2-methoxy-benzyl)-methyl-amino]azetidin-1-yl]-[6-(5-cyclopropyl-4H-1,2,4-triazol-3-yl)-2-azaspiro[3.3]heptan-2-yl]methanone]  7.47
12. O=C(N1CC(C23CC(Cc4ccc(C(F)(F)F)nc4)(C2)C3)C1)N1CC2(CC(c3nc(C4CC4)n[nH]3)C2)C1 [compound 866]  7.72
13. O=C(N1CC(c2ccc(C3(C(F)(F)F)CC3)cc2)C1)N1CC2(CC(c3nc(C4CC(F)(F)C4)n[nH]3)C2)C1 [compound 563]  7.90
14. Cn1nc(C2CC2)cc1CN1CC2(C1)CN(C(=O)N1CC3(CC(c4nc(C5CC5)n[nH]4)C3)C1)C2 [compound 623]  7.90
15. N#Cc1cc(CC2CC3(C2)CN(C(=O)N2CC4(CC(c5nc(C6COC6)n[nH]5)C4)C2)C3)cc(C(F)(F)F)c1 [compound 759]  7.96
16. O=C(N1CC2(CC(c3nc(C4CC4)n[nH]3)C2)C1)N1CC2(CC(c3nc(C4CC4)n[nH]3)C2)C1 [compound 407]  8.03
17. O=C(N1CC(Oc2ccc(C(F)(F)F)c(C3CC3)c2)C1)N1CC2(CC(c3nnc(C4(O)CC4)[nH]3)C2)C1 [compound 319]  8.09
18. O=C(N1CC2(CC(NC3(C(F)(F)F)CC3)C2)C1)N1CC2(CC(c3nnc(C4CC4)[nH]3)C2)C1 [compound 70]  8.14
19. O=C(N1CC2(CC(Cc3cc(F)cc(C(F)(F)F)c3)C2)C1)N1CC2(CC(c3nc(C4CC(F)(F)C4)n[nH]3)C2)C1 [compound 455]  8.15
20. O=C(N1CC(c2ccc(N3CCC4(COC4)C3)nc2)C1)N1CC2(CC(c3nnc(C4CC4)[nH]3)C2)C1 [Example 303, [6-(5-cyclopropyl-4H-1,2,4-triazol-3-yl)-2-azaspiro[3.3]heptan-2-yl]-[3-[6-(2-oxa-7-azaspiro[3.4]octan-7 yl)-3-pyridyl]azetidin-1-yl]methanone]  8.20
21. N#Cc1cc(CC2CC3(C2)CN(C(=O)N2CC4(CC(c5nc(C6CC(F)(F)C6)n[nH]5)C4)C2)C3)ccc1C(F)(F)F [compound 547]  8.23
22. O=C(N1CC(c2ccc(N3CCC(O)(C(F)(F)F)C3)nc2)C1)N1CC2(CC(c3nnc(C4CC4)[nH]3)C2)C1 (single isomer, unassigned) [compound 270]  8.31
23. N=[S@](=O)(c1ccc(CC2CC3(C2)CN(C(=O)N2CC4(CC(c5nnc(C6(N)CC6)[nH]5)C4)C2)C3)cc1)C(F)(F)F (stereo in doubt) [Example 474, [6-[5-(1-aminocyclopropyl)-4H-1,2,4-triazol-3-yl]-2-azaspiro[3.3]heptan-2-yl]-[6-[[4-(trifluoromethyl-sulfonimidoyl)phenyl]methyl]-2-azaspiro[3.3]heptan-2-yl]methanone]  8.34
24. O=C(N1CC2(CCC(Cc3ncc(F)cc3F)C2)C1)N1CC2(CC(c3nc(C4(O)CC4)n[nH]3)C2)C1 (stereo not shown) [compound 929]  8.41
25. O=C(N1CC2(CC(Cc3nc(C(F)(F)F)cs3)C2)C1)N1CC2(CC(c3nc(C4(O)CC4)n[nH]3)C2)C1 [compound 536]  8.41
26. N#Cc1cc(OC2CC3(C2)CN(C(=O)N2CC4(CC(c5nc(C6CC6)n[nH]5)C4)C2)C3)ccc1C(F)(F)F [compound 499]  8.46
27. O=C(N1CC2(CC(c3nnc(C4CC4)[nH]3)C2)C1)N1CC2(C1)CN(S(=O)(=O)c1ccc(F)cc1Cl)C2 [compound 107]  8.50
28. O=C(N1CC(c2cnc(N3CC[C@H](C(F)(F)F)C3)nc2)C1)N1CC2(CC(c3nc(C4CC4)n[nH]3)C2)C1 [compound 708]  8.58
29. O=C(N1CC2(CC(Cc3ccc(C(F)(F)F)nn3)C2)C1)N1CC2(CC(c3nc(C4(F)CC4)n[nH]3)C2)C1 [compound 460]  8.58
30. O=C(N1CC(c2cnc(N3CC[C@@H](C(F)(F)F)C3)nc2)C1)N1CC2(CC(c3nc(C4CC4)n[nH]3)C2)C1 [compound 666]  8.66
31. O=C(N1CC(c2ccc(Oc3ccccc3Cl)nc2)C1)N1CC2(CC(c3nnc(C4(O)CC4)[nH]3)C2)C1 [compound 374]  8.79
32. O=C(N1CC(c2ccc(-n3ccc(C(F)(F)F)cc3=O)cc2)C1)N1CC2(CC(c3nnc(C4CC4)[nH]3)C2)C1 [compound 284]  8.80
33. Cc1cc(C(F)(F)F)nn1-c1ccc(C2CN(C(=O)N3CC4(CC(c5nnc(C6(O)CC6)[nH]5)C4)C3)C2)cc1 [compound 408]  8.84
34. Cc1nc(C(F)(F)F)c(CN2CC3(C2)CN(C(=O)N2CC4(CC(c5nc(C6CC6)n[nH]5)C4)C2)C3)s1 [compound 504]  8.98
35. O=C(N1CC2(CC(Cc3cnc(C(F)(F)F)nc3)C2)C1)N1CC2(CC(c3nc(C4(F)CC4)n[nH]3)C2)C1 [compound 565]  8.98
36. O=C(N1CC2(CC(Cc3ncc(C(F)(F)F)cn3)C2)C1)N1CC2(CC(c3nc(C4(F)CC4)n[nH]3)C2)C1 [compound 647]  9.01
37. O=C(N1CC2(CC(Cc3ccc4nc(C(F)(F)F)nn4c3)C2)C1)N1CC2(CC(c3nc(C4CC4)n[nH]3)C2)C1 [compound 993]  9.10
38. O=C(N1CC2(CC(NS(=O)(=O)c3cccc(C(F)(F)F)c3)C2)C1)N1CC2(CC(c3nnc(C4CC4)[nH]3)C2)C1 [compound 56]  9.13
39. CS(=O)(=O)c1ccc(CC2CCC3(C2)CN(C(=O)N2CC4(CC(c5nnc(C6CC6)[nH]5)C4)C2)C3)cc1 (stereo not shown) [compound 77]  9.16
40. O=C(N1CC2(CC(Cc3cnc(C(F)(F)F)cn3)C2)C1)N1CC2(CC(c3nnc(C4CC4)[nH]3)C2)C1 [Example 3]  9.16
41. O=C(N1CC(c2cnc(NCC3(C(F)(F)F)CC3)cn2)C1)N1CC2(CC(c3nnc(C4CC4)[nH]3)C2)C1 [compound 255]  9.17
42. O=C(N1CC(C23CC(NCC4(C(F)(F)F)CC4)(C2)C3)C1)N1CC2(CC(c3nc(C4(F)CC4)n[nH]3)C2)C1 [compound 578]  9.29
43. COc1cc(C(F)(F)F)ccc1COC1CN(C(=O)N2CC3(CC(c4nnc(C5CC5)[nH]4)C3)C2)C1 [compound 307]  9.36
44. Cc1cc(C(F)F)nn1-c1ccc(C2CN(C(=O)N3CC4(CC(c5nnc(C6CC6)[nH]5)C4)C3)C2)cc1 [compound 285]  9.43
45. O=C(N1CC(C23CC(c4cccc(OC(F)(F)F)c4)(C2)C3)C1)N1CC2(CC(c3nc(C4(O)CC4)n[nH]3)C2)C1 [compound 529]  9.51
46. CS(=O)(=O)c1ccc(CC2CC3(C2)CN(C(=O)N2CC4(CC(c5nnc(C6(O)CC6)[nH]5)C4)C2)C3)cc1C(F)(F)F [compound 47]  9.57
47. O=C(N1CC2(CC(Cc3cc(C(F)(F)F)ccn3)C2)C1)N1CC2(CC(c3nnc(C4CC4)[nH]3)C2)C1 [compound 118]  9.72
48. Cc1cc(C(C)(C)C)nn1-c1ccc(C2CN(C(=O)N3CC4(CC(c5nnc(C6CC6)[nH]5)C4)C3)C2)cc1 [compound 277]  9.77
49. O=C(N1CC2(CC(Cc3ncc(F)cc3Cl)C2)C1)N1CC2(CC(c3nnc(C4CC4)[nH]3)C2)C1 [compound 117]  10.00
50. O=C(N1CC2(CC(Cc3ccc4c(C(F)(F)F)n[nH]c4c3)C2)C1)N1CC2(CC(c3nc(C4CC4)n[nH]3)C2)C1 [compound 989]  10.30
51. O=C(N1CC(c2ccc(C3(S(=O)(=O)C(F)(F)F)CC3)cc2)C1)N1CC2(CC(c3nc(C4CC4)n[nH]3)C2)C1 [compound 968]  10.30
52. O=C(N1CC(C23CC(c4cccc(OC(F)(F)F)c4)(C2)C3)C1)N1CC2(CC(c3nc(C4CC4)n[nH]3)C2)C1 [compound 459]  10.70
